# Assay results: PMC6479877, “Development of Chemical Tools to Monitor Human Kallikrein 13 (KLK13) Activity” (International Journal of Molecular Sciences, 2019)
# Where a SMILES comes first, the peptide text is derived from it. The star is where a group is joined. Biotin = O=C1N[C@H]2[C@H](CS[C@H]2CCCCC(=O)*)N1; AEA = NCCOCC(=O)O; CH2Cl = ClC*
# What was measured:
# KLK13 [1] = biological target: T1, KLK13 (Homo sapiens, UniProt Q9UKR3); assay: Detection of KLK13 using biotinylated ABPs (streptavidin-HRP Western blot); assay type: binding; design: His6 (the forward primers encode HHHHHH followed by DDDDK; the protein was purified on nickel) (N); made in house; host or cells: Leishmania tarentolae strain T7-TR (LEXSY), secreted to the medium; settings: 1 µM probe, TNET buffer, 1 h at 37 °C; twofold dilutions of KLK13 500 to 4 ng
# T1 sequence (Q9UKR3 26-277 limits assumed): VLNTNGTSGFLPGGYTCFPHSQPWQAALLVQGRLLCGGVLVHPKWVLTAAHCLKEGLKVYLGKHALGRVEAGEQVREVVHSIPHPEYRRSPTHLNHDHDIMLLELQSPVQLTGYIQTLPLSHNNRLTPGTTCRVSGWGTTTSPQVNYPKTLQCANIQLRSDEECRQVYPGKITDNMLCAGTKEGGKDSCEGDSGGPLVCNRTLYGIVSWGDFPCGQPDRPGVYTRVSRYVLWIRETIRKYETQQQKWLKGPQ
# Method: Purified active KLK13 (250 ng) was preincubated with increasing concentrations of Bt-PEG-VRFR-CMK or Bt-VRFR-CMK in TNET buffer (0.1 M Tris-HCl, 150 mM NaCl, 5 mM EDTA, 0.05% Tween-20, pH 7.5) for 1 h at 37 °C. Samples were analyzed by SDS-PAGE followed by wet electrotransfer onto a PVDF membrane (GE Healthcare). Membranes were blocked in 5% BSA in TBS buffer (50 mM Tris-HCl, 0.5 M NaCl, pH 7.5) with 0.1% Tween overnight, at 4 °C, followed by incubation with 1:10,000 diluted Streptavidin-HRP (Sigma Aldrich, S2438, Poznan, Poland) for 2 h at RT. After intensive washing with TBS buffer with 0.1% Tween, the signal was developed with Pierce ECL WB substrate (Thermo Fisher Scientific) and visualized manually using AGFA films (Agfa HealthCare, Mortsel, Belgium). To establish the detection limit, decreasing amounts of active KLK13 (ranging from 3.9-500 ng) were preincubated with 1 µM Bt-PEG-VRFR-CMK in TNET buffer for 1 h at 37 °C and visualized by streptavidin-HRP Western blot as described above.
# KLK13 [2] = biological target: T1, KLK13; assay: Inhibitory activity of CMK inhibitors / activity-based probes against KLK13; assay type: biochemical; design: His6 (the forward primers encode HHHHHH followed by DDDDK; the protein was purified on nickel) (N); made in house; settings: progress curves method, irreversible inhibition, inhibitor 0–50 µM, Substrate 2 10 µM, KLK13 10 nM, 37 °C, pH 7.5, mean ± SD of three replicates
# Method: The kinetic parameters of inhibition were determined using a progress curve model for irreversible inhibition, as described previously. […] Upon the addition of KLK13 (final concentration 10 nM), the fluorescence of the hydrolyzed substrate was monitored in each sample at excitation and emission wavelengths of 320 and 450 nm, respectively, for 1 h using a microplate reader Gemini EM (Molecular Devices, Berkshire, UK). The reactions were carried out in 200 µL of final volume of 50 mM Tris-Cl (pH 7.5) containing 1 mM EDTA and 0.5 μM heparin at 37 °C. Progress curves were fitted to the resulting data points and then kobs derived from each curve was plotted against inhibitor concentration. Final values of kass were calculated by linear regression and presented as mean ± SD of three independent replicates.
# KLK13 [3] = biological target: T1, KLK13; assay: Kinetic parameters of substrate hydrolysis by KLK13; assay type: biochemical; design: His6 (the forward primers encode HHHHHH followed by DDDDK; the protein was purified on nickel) (N); made in house; host or cells: Leishmania tarentolae strain T7-TR (LEXSY), secreted to the medium; settings: KLK13 1.25 × 10^−9 M; for Km / kcat: measured in triplicate, ± SD; for kcat/KM (specificity constant): calculated from kcat and KM
# Method: The specificity constant (kcat/KM) was calculated from kcat and KM. The details of kinetic studies and the method of calculating kinetic parameters have been described previously.
# KLK13 [4] = biological target: T1, KLK13; assay: Detection limit of KLK13 activity with the substrates; assay type: biochemical; design: His6 (the forward primers encode HHHHHH followed by DDDDK; the protein was purified on nickel) (N); made in house; host or cells: Leishmania tarentolae strain T7-TR (LEXSY), secreted to the medium; settings: constant amount of substrate, decreasing KLK13; 50 mM Tris-Cl pH 7.5, 1 mM EDTA, 0.5 μM heparin, 37 °C
# Method: The detection limit was established by analyzing the correlation between an increase in absorbance/fluorescence and enzyme concentration at constant quantities of each, ABZ-Val-Arg-Phe-Arg-ANB-NH2 (Substrate 1) and ABZ-[…]3-NO2)-NH2 (Substrate 2).
# Int. J. Mol. Sci. 2019, 20, x FOR PEER REVIEW 2 of 2
# Figure S2. Detection limit and pH optimum of KLK13 as determined for the optimized substrates.
# Substrates 1 (A) and 2 (B) were titrated with decreasing amounts of KLK13 in 50 mM Tris-Cl (pH 7.5) buffer containing 1 mM EDTA and 0.5 μM heparin at 37 °C. ( C) pH dependence of KLK13. Processing […]
# of ABZ-[…]3-NO 2)-NH2 by KLK13 was monitored at pH range of 3 to 10 (citric acid/sodium citrate, sodium acetate/acetic acid, MES, MOPS, HEPES and TRIS buffers).
# Reaction progress was monitored by fluorescence detection at the excitation and emission wavelength […]
# (1 picture or pasted object on this page, not shown here)
# [5] = test system: cathepsins (CatX, CatL, CatS, CatD, CatH, CatB); assay: Selectivity assessment of substrate 2: cathepsins; assay type: biochemical; settings: substrate 6.15 μM, enzymes 1.25 nM, 37 °C, 50 mM Tris-Cl pH 7.5, 1 mM EDTA, 0.5 μM heparin; fluorescence 450 nm
# Method: (§1) Substrate 2 (6.15 μM) was incubated with tested kallikreins (KLK1, KLK2, KLK3, KLK4, KLK6, KLK8, KLK12, KLK13) and cathepsins (CatX, CatL, CatS, CatD, CatH, CatB), all at a concentration of 1.25 nM, at 37 °C in 50 mM Tris-Cl (pH 7.5) buffer containing 1 mM EDTA and 0.5 μM heparin. Proteolytic activity was assayed as an increase in fluorescence at 450 nm.
# KLK13 [6] = biological target: T1, KLK13; assay: Site of hydrolysis by RP-HPLC with fluorescence detection and MS; assay type: biochemical; design: His6 (the forward primers encode HHHHHH followed by DDDDK; the protein was purified on nickel) (N); made in house; host or cells: Leishmania tarentolae strain T7-TR (LEXSY), secreted to the medium; settings: RP-HPLC with fluorescence detection coupled to MS
# Method: The site of hydrolysis was determined after each step of deconvolution of primed site library and for both final substrates (1 and 2) by RP-HPLC monitored by fluorescence detection and MS.
# KLK13 [7] = biological target: T1, KLK13; assay: pH dependence of KLK13 activity; assay type: biochemical; design: His6 (the forward primers encode HHHHHH followed by DDDDK; the protein was purified on nickel) (N); made in house; host or cells: Leishmania tarentolae strain T7-TR (LEXSY), secreted to the medium; settings: KLK13 1.25 nM, substrate 6.15 µM, 37 °C, buffers pH 3 to 10
# Method: The pH dependence of KLK13 (1.25 nM) was established at 37 °C using substrate 2 (6.15 µM) in following buffers: citric acid/sodium citrate (pH 3), sodium acetate/acetic acid (pH 4 and 5), MES (pH 6), MOPS (pH 7), HEPES (pH 8) and TRIS (pH 9 and 10).
# [8] = test system: KLK1, KLK2, KLK3, KLK4, KLK6, KLK8, KLK12; assay: Selectivity assessment of substrate 2: other kallikreins; assay type: biochemical; settings: substrate 6.15 μM, enzymes 1.25 nM, 37 °C, 50 mM Tris-Cl pH 7.5, 1 mM EDTA, 0.5 μM heparin; fluorescence 450 nm
# Method: as §1
Compound,Km (KLK13 [3]) [µM],kcat (KLK13 [3]) [s⁻¹],kcat/KM (specificity constant) (KLK13 [3]),other results
"CC(C)[C@H](NC(=O)COCCNC(=O)CCCC[C@@H]1SC[C@@H]2NC(=O)N[C@@H]21)C(=O)N[C@@H](CCCNC(=N)N)C(=O)N[C@@H](Cc1ccccc1)C(=O)N[C@@H](CCCNC(=N)N)C(=O)CCl [Bt-PEG-VRFR-CMK, Bt-PEG-Val-Arg-Phe-Arg-CMK] ({Biotin-AEA}-VRFR-CH2Cl)",–,–,–,Detection limit of purified KLK13 in Western blot (KLK13 [1]): ~15 ng; kass (KLK13 [2]): 204 ± 23 M⁻¹ s⁻¹
"CC(C)[C@H](NC(=O)CCCC[C@@H]1SC[C@@H]2NC(=O)N[C@@H]21)C(=O)N[C@@H](CCCNC(=N)N)C(=O)N[C@@H](Cc1ccccc1)C(=O)N[C@@H](CCCNC(=N)N)C(=O)CCl [Bt-VRFR-CMK, Bt-Val-Arg-Phe-Arg-CMK] (Biotin-VRFR-CH2Cl)",–,–,–,kass (KLK13 [2]): 49 ± 2 M⁻¹ s⁻¹
ABZ-VRFRSTE-Tyr(3-NO2)-NH2 [optimized substrate differing only at the P3′ position (Glu)],24.7 ± 5.8,91.11 ± 11.61,(3.69 ± 0.40) ×10^6 M^−1·s^−1,–
ABZ-VRFRSTG-Tyr(3-NO2)-NH2 [optimized substrate differing only at the P3′ position (Gly)],19.7 ± 3,169.40 ± 12.40,(8.62 ± 0.37) ×10^6 M^−1·s^−1,–
ABZ-VRFRSTS-Tyr(3-NO2)-NH2 [optimized substrate differing only at the P3′ position (Ser)],14.7 ± 2.2,113.12 ± 6.87,(7.71 ± 0.67) ×10^6 M^−1·s^−1,–
"ABZ-Val-Arg-Phe-Arg-ANB-NH2 [Substrate 1, kinetically preferred non-primed fluorogenic/chromogenic KLK13 substrate]",17.8 ± 2.8,94.36 ± 3.05,over 5 × 10^6 M^−1·s^−1,kcat/KM (specificity constant) (KLK13 [3]; listed as ABZ-VRFR-ANB-NH2 (1)): (5.31 ± 0.34) ×10^6 M^−1·s^−1; KLK13 concentration at which fluorescence increase was still detectable (KLK13 [4]): 1.56 nM
"ABZ-Val-Arg-Phe-Arg-Ser-Thr-Gln-Tyr(3-NO2)-NH2 [Substrate 2, internally quenched fluorogenic KLK13 substrate spanning P4-P3′]",10 ± 1.9,96.43 ± 7.15,–,kcat/KM (specificity constant) (KLK13 [3]; listed as ABZ-VRFRSTQ-Tyr(3-NO2)-NH2 (2)): (9.64 ± 1.08) ×10^6 M^−1·s^−1; kcat/KM (specificity constant) (KLK13 [3]; listed as ABZ-Val-Arg-Phe-Arg-Ser-Thr-Gln-Tyr(3-NO2)-NH2): ≈ 10^7 M^−1·s^−1; kcat/KM (specificity constant) (KLK13 [3]; listed as substrate 2): ~1e+07 M⁻¹ s⁻¹; Hydrolysis by cathepsins [5]: None of tested cathepsins hydrolyzed; KLK13 concentration at which fluorescence increase was still detectable (KLK13 [4]): 0.0488 nM; Site of hydrolysis by KLK13 (KLK13 [6]): exclusively hydrolyzed at the Arg-Ser peptide bond; Optimal pH for processing of the substrate by KLK13 (KLK13 [7]): 9; Cleavage by other kallikreins relative to the activity of KLK13 [8]: ≤ 20%
